# Tested on: MCF7
# Test: Potency index, ratio of cisplatin IC50 to test compound IC50 for cytotoxicity against human MCF7 cells after 48 hrs by MTT assay
# Assay type: functional
smiles,measurement,value
COc1ccc(/C=C2\N=C(c3ccco3)N(n3c(C)nc4c(Br)cc(Br)cc4c3=O)C2=O)cc1,Ratio IC50,3

# — ChEMBL document CHEMBL4261515, “An insight into the therapeutic potential of quinazoline derivatives as anticancer agents” (2017)
